Reference: patent US4876248A, “Anti-inflammatory products derived from methylene-diphosphonic acid, and process for their preparation” (priority 1982, dated 1989)
Counter-ions that a name gives are not always drawn.

System: Adjuvant arthritis
Experiment: Adjuvant arthritis in the rat (in vivo study), weight of the paw
Parameters: species or system rat (male Sprague-Dawley)
Conditions: 10 mg/kg per day cutaneously, 6 days per week, 3 weeks, started 15 days after Mycobacterium tuberculosis injection, right rear paw

SMILES	Adjuvant arthritis, weight of the paw % inhibition (difference in average paw weight of treated arthritic rats relative to reference arthritic rats)
CSC(P(=O)(O)O)P(=O)(O)O [SR 41 036, Tri-(tertiary butylamine) salt of methylthio-methylene-diphosphonic acid]	23%
CC(C)SC(P(=O)(O)O)P(=O)(O)O [SR 41 100]	37%
O=P(O)(O)C(Sc1ccccn1)P(=O)(O)O [SR 41 179]	25%
O=P(O)(O)C(Sc1nc2ccccc2[nH]1)P(=O)(O)O [SR 41 263]	19%
O=P(O)(O)C(Sc1ncccn1)P(=O)(O)O [SR 41 264]	43%
NCCSC(P(=O)(O)O)P(=O)(O)O [SR 41 266]	29%
CSCCC(P(=O)(O)O)P(=O)(O)O [SR 41 273, Tertiary butylamine salt of 3-methylthio-propylidene-1,1-diphosphonic acid]	39%
CC(C)OP(=O)(OC(C)C)C(CCCSc1ccccc1)P(=O)(OC(C)C)OC(C)C [SR 41 341, Tetraisopropyl 4-phenylthio-butylene-1,1-diphosphonate]	24%
O=P(O)(O)C(CCCSc1ccccc1)P(=O)(O)O [SR 41 342, Di-(tertiarybutylamine salt) of 4-phenylthio-butylidene-1,1-diphosphonic acid]	38%
CN(C)CCSC(P(=O)(O)O)P(=O)(O)O [SR 41 344]	35%
Nc1ccccc1SC(P(=O)(O)O)P(=O)(O)O [SR 41 388]	42%
CCCCCCCCSC(P(=O)(O)O)P(=O)(O)O [SR 41 421]	55%
CC(C)OP(=O)(OC(C)C)C(Sc1ccccc1C(=O)O)P(=O)(OC(C)C)OC(C)C [SR 41 452]	15%
CCCCCCCCCCCCCCCCSC(P(=O)(O)O)P(=O)(O)O [SR 41 453, Monoammonium hexadecylthiomethylene-diphosphonate]	58%
CCCCCCCCSC(P(=O)(OC(C)C)OC(C)C)P(=O)(OC(C)C)OC(C)C [SR 41 454, Tetraisopropyl n-octylthiomethylene-diphosphonate]	33%
O=P(O)(O)C(Sc1nc2cc(Cl)ccc2[nH]1)P(=O)(O)O [SR 41 480]	40%

SMILES	Adjuvant arthritis, weight of the paw % inhibition (difference in average paw weight of treated arthritic rats relative to reference arthritic rats)
O=P(O)(O)C(Sc1nc2ccccc2s1)P(=O)(O)O [SR 41 481, Tri-(tertiarybutylamine) salt of benzothiazol-2-yl-thiomethylene-diphosphonic acid]	40%
O=P(O)(O)C(Sc1ccccc1)P(=O)(O)O [SR 41 482]	41%
O=P(O)(O)C(CCCCS)P(=O)(O)O [SR 41 527, Di-(tertiarybutylalmine) salt of 5-mercapto-pentylidene-1,1-diphosphonic acid]	34%
O=P(O)(O)C(Sc1cccs1)P(=O)(O)O [SR 41 549, thien-2-yl-thiomethylene-diphosphonic acid]	34%
CCCCCCCSC(P(=O)(O)O)P(=O)(O)O [SR 41 552]	36%
O=P(O)(O)C(Sc1ccccc1Cl)P(=O)(O)O [SR 41 689]	31%
O=P(O)(O)C(O)(CCCSc1ccc(Cl)cc1)P(=O)(O)O [SR 41 903, Di-(tertiarybutylamine) salt of 4-(4-chlorophenylthio)-1-hydroxy-butylidene-1,1-diphosphonic acid]	55%
O=P(O)(O)C(O)(CCCCSc1ccc(F)cc1)P(=O)(O)O [SR 41 909, Di-(tertiarybutylamine) salt of 5-(4-fluorophenylthio)-1-hydroxy-pentylidene-1,1-diphosphonic acid]	53%
O=P(O)(O)C(CCCCCCSc1ccc(Cl)cc1)P(=O)(O)O [SR 41 959]	60%
CCCCCSCCCC(O)(P(=O)(O)O)P(=O)(O)O [SR 41 961]	53%
CCCSCCCCCC(O)(P(=O)(O)O)P(=O)(O)O [SR 42 015]	47%
O=P(O)(O)C(O)(CCCCSc1ccc(Cl)cc1)P(=O)(O)O [SR 42 016]	48%
O=P(O)(O)C(O)(CCSc1ccccc1)P(=O)(O)O [SR 42 017]	49%
CSCCCCCCCCCCC(O)(P(=O)(O)O)P(=O)(O)O [SR 42 097]	50%
O=P(O)(O)C(CCCCSc1ccccn1)P(=O)(O)O [SR 42 099, 5-(pyrid-2-yl-thio)-pentylidene-1,1-diphosphonic acid]	44%
